Assay results published in US20120309734A1, “COMBRETASTATIN DERIVATIVES AND USES THEREFOR” (priority 2009, published 2012).

Assays:
[1] = test system: MCF-7 breast cancer cell line; test: Antiproliferation study, MTT cell viability assay; type: cell-based; conditions: Homo sapiens, MCF7, 72 h, antiproliferative activity, MTT, 72 h; read-out: IC50 (μM) MCF-7 cell line
How it was run: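 Cells seeded at 2.5×10^4 cells/ml and grown 24 h at 37 °C before compound treatment; vehicle 1% v/v ethanol. MTT at 1 mg/mL final for 2 h at 37 °C, then DMSO solubilisation and absorbance read. Viability expressed as % of untreated control, in triplicate, with compounds tested as free bases.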

CCRF-CEM = test: NCI60 cell line screen; conditions: Homo sapiens
HL-60(TB) = test: NCI60 cell line screen; conditions: Homo sapiens
RPMI-8226 = test: NCI60 cell line screen; conditions: Homo sapiens
A549/ATCC = test: NCI60 cell line screen; conditions: Homo sapiens
NCI-H23 = test: NCI60 cell line screen; conditions: Homo sapiens
NCI-H460 = test: NCI60 cell line screen; conditions: Homo sapiens
NCI-H552 = test: NCI60 cell line screen
COLO 205 = test: NCI60 cell line screen; conditions: Homo sapiens
HCT-116 = test: NCI60 cell line screen; conditions: Homo sapiens
HCT-15 = test: NCI60 cell line screen; conditions: Homo sapiens
SF-268 = test: NCI60 cell line screen; conditions: Homo sapiens
SF-295 = test: NCI60 cell line screen; conditions: Homo sapiens
SF-539 = test: NCI60 cell line screen; conditions: Homo sapiens
SNB-19 = test: NCI60 cell line screen; conditions: Homo sapiens
U251 = test: NCI60 cell line screen; conditions: Homo sapiens, U-251
SK-MEL-2 = test: NCI60 cell line screen; conditions: Homo sapiens
SK-MEL-28 = test: NCI60 cell line screen; conditions: Homo sapiens
SK-MEL-5 = test: NCI60 cell line screen; conditions: Homo sapiens
UACC-257 = test: NCI60 cell line screen; conditions: Homo sapiens
UACC-62 = test: NCI60 cell line screen; conditions: Homo sapiens
OVCAR-4 = test: NCI60 cell line screen; conditions: Homo sapiens
OVCAR-5 = test: NCI60 cell line screen; conditions: Homo sapiens
OVCAR-8 = test: NCI60 cell line screen; conditions: Homo sapiens
SK-OV-3 = test: NCI60 cell line screen; conditions: Homo sapiens
786-0 = test: NCI60 cell line screen; conditions: Homo sapiens
ACHN = test: NCI60 cell line screen; conditions: Homo sapiens
CAKI-1 = test: NCI60 cell line screen; conditions: Homo sapiens
RXF 393 = test: NCI60 cell line screen; conditions: Homo sapiens
SN12C = test: NCI60 cell line screen; conditions: Homo sapiens
UO-31 = test: NCI60 cell line screen; conditions: Homo sapiens
NCI/ADR-RES = test: NCI60 cell line screen; conditions: Homo sapiens
MDA-MB-231/ATCC = test: NCI60 cell line screen; conditions: Homo sapiens
MDA-MB-435 = test: NCI60 cell line screen; conditions: Homo sapiens
BT-549 = test: NCI60 cell line screen; conditions: Homo sapiens
T-47D = test: NCI60 cell line screen; conditions: Homo sapiens, T47D
MDA-MB-468 = test: NCI60 cell line screen; conditions: Homo sapiens

Row | Structure (SMILES) | IC50 [1] [µM] | GI50 (CCRF-CEM) [µM] | GI50 (HL-60(TB)) [µM] | GI50 (RPMI-8226) [µM] | GI50 (A549/ATCC) [µM] | GI50 (NCI-H23) [µM] | GI50 (NCI-H460) [µM] | GI50 (NCI-H552) [µM] | GI50 (COLO 205) [µM] | GI50 (HCT-116) [µM] | GI50 (HCT-15) [µM] | GI50 (SF-268) [µM] | GI50 (SF-295) [µM] | GI50 (SF-539) [µM] | GI50 (SNB-19) [µM] | GI50 (U251) [µM] | GI50 (SK-MEL-2) [µM] | GI50 (SK-MEL-28) [µM] | GI50 (SK-MEL-5) [µM] | GI50 (UACC-257) [µM] | other results
1 | COc1ccc(C2C(c3ccccc3)C(=O)N2c2cc(OC)c(OC)c(OC)c2)cc1O (stereo not drawn) [Compound 4, 4-(3-Hydroxy-4-methoxyphenyl)-3-phenyl-1-(3,4,5-trimethoxyphenyl)-azetidin-2-one] | 0.0096 | < 0.01 | < 0.01 | < 0.01 | < 0.01 | < 0.01 | < 0.01 | 5.15 | 0.019 | < 0.01 | < 0.01 | < 0.01 | < 0.01 | < 0.01 | 0.025 | < 0.01 | 0.014 | < 0.01 | < 0.01 | 22.4 | GI50 (UACC-62): < 0.01 µM; GI50 (OVCAR-4): 0.018 µM; GI50 (OVCAR-5): 0.038 µM; GI50 (OVCAR-8): 0.01 µM; GI50 (SK-OV-3): 0.037 µM; GI50 (786-0): 0.034 µM; GI50 (ACHN): < 0.01 µM; GI50 (CAKI-1): < 0.01 µM; GI50 (RXF 393): < 0.01 µM; GI50 (SN12C): < 0.01 µM; GI50 (UO-31): 0.032 µM; GI50 (NCI/ADR-RES): < 0.01 µM; GI50 (MDA-MB-231/ATCC): < 0.01 µM; GI50 (MDA-MB-435): < 0.01 µM; GI50 (BT-549): < 0.01 µM; GI50 (T-47D): 31.2 µM; GI50 (MDA-MB-468): < 0.01 µM
2 | COc1ccc(C2C(c3ccccc3)C(=O)N2c2cc(OC)c(OC)c(OC)c2)cc1 (stereo not drawn) [Compound 8, 4-(4-Methoxy-phenyl)-3-phenyl-1-(3,4,5-trimethoxy-phenyl)-azetidin-2-one] | 0.034 | 0.0372 | 0.0162 | 0.0293 | 0.238 | 0.427 | 0.198 | 0.0966 | 0.166 | 0.0398 | 0.17 | 0.354 | 0.035 | 0.033 | 0.28 | 0.095 | > 100 | 0.405 | 0.124 | 27.9 | GI50 (UACC-62): 0.0405 µM; GI50 (OVCAR-4): 0.0825 µM; GI50 (OVCAR-5): 0.668 µM; GI50 (OVCAR-8): 0.125 µM; GI50 (SK-OV-3): 0.412 µM; GI50 (786-0): 0.432 µM; GI50 (ACHN): 0.138 µM; GI50 (CAKI-1): 0.0848 µM; GI50 (RXF 393): 0.0365 µM; GI50 (SN12C): 0.312 µM; GI50 (UO-31): 0.396 µM; GI50 (NCI/ADR-RES): 0.0425 µM; GI50 (MDA-MB-231/ATCC): 0.2 µM; GI50 (MDA-MB-435): 0.0239 µM; GI50 (BT-549): 0.117 µM; GI50 (T-47D): > 100 µM; GI50 (MDA-MB-468): 0.0684 µM
3 | COc1ccc(C2C(c3cccs3)C(=O)N2c2cc(OC)c(OC)c(OC)c2)cc1 (stereo not drawn) [Compound 12, 4-(4-Methoxyphenyl)-3-thiophen-2-yl-1-(3,4,5-trimethoxyphenyl)-azetidin-2-one] | 0.064 | < 0.01 | < 0.01 | < 0.01 | 0.023 | 0.036 | 0.03 | < 0.01 | 0.015 | < 0.01 | 0.026 | 0.028 | < 0.01 | < 0.01 | 0.043 | 0.037 | 7.79 | 0.01 | 0.014 | 67.8 | GI50 (UACC-62): < 0.01 µM; GI50 (OVCAR-4): 0.013 µM; GI50 (OVCAR-5): 0.051 µM; GI50 (OVCAR-8): < 0.01 µM; GI50 (SK-OV-3): 0.038 µM; GI50 (786-0): 0.031 µM; GI50 (ACHN): < 0.01 µM; GI50 (CAKI-1): 0.016 µM; GI50 (RXF 393): < 0.01 µM; GI50 (SN12C): < 0.01 µM; GI50 (UO-31): 0.038 µM; GI50 (NCI/ADR-RES): < 0.01 µM; GI50 (MDA-MB-231/ATCC): 0.01 µM; GI50 (MDA-MB-435): < 0.01 µM; GI50 (BT-549): < 0.01 µM; GI50 (T-47D): > 1000 µM; GI50 (MDA-MB-468): < 0.01 µM
